# Results from patent publication US20240374626A1, “METHODS OF ENHANCING MILK PRODUCTION IN LACTATING MAMMALIAN SUBJECTS” (priority 2023, published 2024).
# Assays:
# Type in all cases: in vivo, mouse
# γH2AX = assay: Contralateral intraductal injection: γH2AX IHC in CK8+ luminal cells of MG; details: Hydroxyurea IDI at PD8.5 and PD12.5 vs contralateral PBS, at PD13.5
# Protocol: (§1) Nulliparous analysis was performed using adult (10-12-week-old) female mice. For timed pregnancies and lactation analysis, CD-1 pregnant adult females were obtained from Charles Rivers. Embryos were examined at the time of mammary gland harvesting to confirm pregnancy state. […] Plugged mice were considered to be PD0.5 on the day of the observed plug. All females used in this study were age matched.
# (§2) Mice were anesthetized with isoflurane (VetOne, 501017) Prior to intraductal injections, hair was removed from around the nipples using Nair hair remover. Injections into the duct of the nipple were performed with 33 G needles (Hamilton, 7803-05) and a volume of 40 μl per gland. Right inguinal, abdominal and thoracic glands were injected with doxorubicin (1.5 μg per gland, Cayman Chemical, 15007), nucleosides (40 μl per gland, Millipore-Sigma, ES-008-D) or Mk-1775 (50 μg per gland, Cayman Chemical, 21266), and left glands were injected with PBS or DMSO (Thermo Scientific, BP231) diluted in PBS.
# (§3) Mammary gland tissue was fixed in 10% neutral buffered formalin (EMD Millipore, MR0458682) at 4° C. overnight. Fixation was quenched using 0.2% glycine (Fisher Scientific, BP381) in PBS, for 1 h at room temperature. […] Integrated density of nuclear γH2AX and pATR was quantified using ImageJ.
# pATR = assay: Contralateral intraductal injection: pATR IHC in CK8+ luminal cells of MG; details: Hydroxyurea IDI at PD8.5 and PD12.5 vs contralateral PBS, at PD13.5
# Protocol: as §1, §2, §3
# Csn2 = assay: Contralateral intraductal injection: Csn2 expression in MGs by RT-qPCR; details: Hydroxyurea IDI at PD8.5 and PD12.5 vs contralateral PBS, LD2 MGs
# Protocol: as §1, §2
# For RNA isolation from FACS purified populations, mammary gland cell suspensions were blocked using Mouse BD Fc Block™ (BD Biosciences) for 10 min. Cells were subsequently resuspended on 1×PBS at a density of 10^7 cells/ml and stained with the following antibodies for 30 min on ice: anti-CD24 PE (Stem Cell Technologies, 60099PE.1), anti-CD29 PE-Cy7 (BioLegend, 102222), anti-CD45-APC (BioLegend,105826), Ter119-APC (BD Biosciences, 561033), CD31-ACP (BD Biosciences, 551262). Propidium iodide at a final concentration of 0.5 μg/ml was used for the discrimination of dead cells. Stromal, basal and luminal mammary populations were sorted using a BD FACS Aria II Cell Sorter. […] Total RNA quality was analyzed by agarose gel electrophoresis and quantified using an ND-1000 spectrophotometer (NanoDrop). cDNA was prepared from 500-1000 ng of total RNA using iScript cDNA synthesis kit (Bio-Rad, 1708841). Quantitative RT-qPCR was performed in triplicates using SsoAdvanced Universal SYBR Green Supermix, (Bio-Rad, 1725272). […]
# MG alveoli = assay: Contralateral intraductal injection: milk staining (IHC) integrated density per alveolus; details: Hydroxyurea IDI at PD8.5 and PD12.5 vs contralateral PBS, LD2 MG section
# Protocol: as §1
# (§4) Mice were anesthetized with isoflurane (VetOne, 501017) Prior to intraductal injections, hair was removed from around the nipples using Nair hair remover. Injections into the duct of the nipple were performed with 33 G needles (Hamilton, 7803-05) and a volume of 40 μl per gland. […]
# Mammary gland tissue was fixed in 10% neutral buffered formalin (EMD Millipore, MR0458682) at 4° C. overnight. […] Incubation with secondary antibodies [(donkey anti-Rat 647 (Thermo-Invitrogen; A48272) and donkey anti-Rabbit 488 (Thermo-Invitrogen; A32790)] was performed for 2 h at room temperature. Sections were washed with 0.3% triton in PBS for 30 min (×3) at room temperature and mounted using flouromount-G (Southern Biotech, 0100-01). Image acquisition was performed using Zeiss Axio Imager Microscope. Macros were generated to quantify lumen milk integrated density per alveolus using Image J.
# Wee1 = assay: Contralateral intraductal injection: Wee1 expression in whole MG tissue by RT-qPCR; details: IDI of hydroxyurea into pregnant MG vs contralateral PBS
# Protocol: as §1, §4
# For RNA isolation from FACS purified populations, mammary gland cell suspensions were blocked using Mouse BD Fc Block™ (BD Biosciences) for 10 min. […] Total RNA quality was analyzed by agarose gel electrophoresis and quantified using an ND-1000 spectrophotometer (NanoDrop). cDNA was prepared from 500-1000 ng of total RNA using iScript cDNA synthesis kit (Bio-Rad, 1708841). Quantitative RT-qPCR was performed in triplicates using SsoAdvanced Universal SYBR Green Supermix, (Bio-Rad, 1725272). […]
# CK8+ luminal cells = assay: Contralateral intraductal injection: FACS DNA content analysis of CK8+ luminal cells; details: Hydroxyurea IDI at PD8.5 and PD12.5 vs contralateral PBS, by LD5
compound,measurement,setting,value
NC(=O)NO [Hydroxyurea],γH2AX in CK8+ population,γH2AX,increased
same,pATR in CK8+ population,pATR,increased
same,"Csn2 expression, RT-qPCR",Csn2,increase
same,increase in milk (average integrated density of milk staining among alveoli),MG alveoli,~15%
same,"Wee1 expression in whole MG tissue, RT-qPCR",Wee1,upregulated
same,decrease in 2C CK8+ population (in the overall population),CK8+ luminal cells,5.5%
same,increase in 4C CK8+ population (in the overall population),CK8+ luminal cells,2%
same,increase in >4C CK8+ population (in the overall population),CK8+ luminal cells,48%
